Source: patent publication US20200037600A1, “MESOIONIC IMIDAZOPYRIDINES AS INSECTICIDES” (Bayer Aktiengesellschaft, priority 2017, published 2020)
Read-outs that look alike come from different tables or passages of the source.

Legend:
Lucilia cuprina = Lucilia cuprina test; assay type: in vivo; settings: application rate 100 ppm; L1 larvae; after 2 days
Method: (§1) Solvent: dimethyl sulfoxide
(§2) To produce a suitable active compound formulation, 10 mg of active compound are mixed with 0.5 ml of dimethyl sulfoxide, and the concentrate is diluted with water to the desired concentration.
About 20 L1 larvae of the Australian sheep blowfly (Lucilia cuprina) are transferred into a test vessel containing minced horsemeat and the active compound formulation of the desired concentration.
After 2 days, the kill in % is determined. 100% means that all the larvae have been killed; 0% means that no larvae have been killed.

Myzus persicae [1] = assay: Myzus persicae oral test; assay type: in vivo; settings: after 5 days
Method: Solvent: 100 parts by weight of acetone
To produce a suitable active compound formulation, 1 part by weight of active compound is dissolved with the stated parts by weight of solvent and made up to the desired concentration with water.
50 μl of the active compound formulation are transferred into microtitre plates and made up to a final volume of 200 μl with 150 μl of IPL41 insect medium (33%+15% sugar). Subsequently, the plates are sealed with parafilm, which a mixed population of green peach aphids (Myzus persicae) within a second microtitre plate is able to puncture and imbibe the solution.
(§3) After 5 days, the efficacy in % is determined. 100% means that all the aphids have been killed; 0% means that no aphids have been killed.

Myzus persicae [2] = assay: Myzus persicae spray test; assay type: in vivo; settings: application rate 500 g/ha, Chinese cabbage leaf discs, after 5 days; for pest or weed control at 500 g/ha: Myzus persicae, foliar, 120 h, read-out: efficacy
Method: Myzus persicae—Spray Test
(§4) Solvent: 78 parts by weight of acetone • • 1.5 parts by weight of dimethylformamide
(§5) Emulsifier: alkylaryl polyglycol ether
(§6) To produce a suitable active compound formulation, 1 part by weight of active compound is dissolved with the specified parts by weight of solvent and made up to the desired concentration with water containing an emulsifier concentration of 1000 ppm. To produce further test concentrations, the formulation is diluted with emulsifier-containing water.
Discs of Chinese cabbage leaves (Brassica pekinensis) infested by all stages of the green peach aphid (Myzus persicae) are sprayed with an active compound formulation of the desired concentration.
as §3

Diabrotica balteata = Diabrotica balteata spray test; assay type: in vivo; settings: application rate 160 μg/well, beetle larvae on germinated wheat grains, after 7 days; for pest or weed control at 160 µg/disc, 160 µg/well: Diabrotica balteata, 168 h, read-out: efficacy
Method: Diabrotica balteata—Spray Test
as §4, §5, §6
Pre-swollen wheat grains (Triticum aestivum) are incubated in a multiwell plate filled with agar and a little water for one day (5 seed grains per well). The germinated wheat grains are sprayed with an active compound preparation of the desired concentration. Subsequently, each cavity is infected with 10-20 beetle larvae of Diabrotica balteata.
After 7 days, the efficacy in % is determined. 100% means that all maize plants have grown as in the untreated, uninfected control; 0% means that no maize plant has grown.

[3] = log P by HPLC (EEC directive 79/831 Annex V.A8); assay type: physicochemical
Method: The log P values reported in the tables and preparation examples above were determined in accordance with EEC directive 79/831 Annex V.A8 by HPLC (High Performance Liquid Chromatography) using a reversed-phase column (C18). Temperature 43° C. The calibration is effected with unbranched alkan-2-ones (having 3 to 16 carbon atoms), for which the log P values are known.

Musca domestica = Musca domestica test; assay type: in vivo; settings: application rate 100 ppm; adult houseflies; after 2 days
Method: as §1, §2
Vessels containing a sponge treated with sugar solution and the active compound formulation of the desired concentration are populated with 10 adult houseflies (Musca domestica).
After 2 days, the kill in % is determined. 100% means that all of the flies have been killed; 0% means that none of the flies have been killed.

Phaedon cochleariae = Phaedon cochleariae spray test; assay type: in vivo; settings: foliar, 168 h, application rate 500 g/ha, larvae on Chinese cabbage leaf discs, after 7 days, read-out: efficacy
Method: Phaedon cochleariae—Spray Test
Solvent: 78.0 parts by weight of acetone • • 1.5 parts by weight of dimethylformamide
as §5, §6
Discs of Chinese cabbage leaves (Brassica pekinensis) are sprayed with an active compound formulation of the desired concentration and, after drying, populated with larvae of the mustard beetle (Phaedon cochleariae).
After 7 days, the efficacy in % is determined. 100% means that all the beetle larvae have been killed; 0% means that no beetle larvae have been killed.

[4] = Myzus persicae, po, 120 h, application rate 4 ppm, read-out: efficacy

SMILES	efficacy (kill in %) (Lucilia cuprina) [%]	efficacy (Myzus persicae [1]; application rate 4 ppm) [%]	pest or weed control at 4 ppm (Myzus persicae [1]; [4]) [%]	pest or weed control at 500 g/ha (Myzus persicae [2]) [%]	efficacy (kill in %) (Musca domestica) [%]	pest or weed control at 500 g/ha (Phaedon cochleariae) [%]	also measured
O=C(c1cccc(C(F)(F)F)c1)c1c([O-])[n+]2ccccc2n1Cc1cnc(Cl)s1 [Example I-023]	95	100	–	–	–	–	efficacy (Myzus persicae [2]): 90%; efficacy (Diabrotica balteata): 100%
O=C(OCC1CC1)C(=O)c1c([O-])[n+]2ccccc2n1Cc1cnc(Cl)s1 [Example I-034, 1-[(2-chlorothiazol-5-yl)methyl]-2-[2-(cyclopropylmethoxy)-2-oxoacetyl]imidazo[1,2-a]pyridin-4-ium-3-olate]	–	–	100	90	100	–	chromatographic logP ([3]; HPLC, reversed-phase column (C18), 43° C, acidic (HCOOH), read-out: log P (HCOOH)): 1.94
Cc1ccc[n+]2c([O-])c(C(=O)C(F)(F)C(F)(F)F)n(Cc3cnc(Cl)s3)c12 [Example I-062]	–	–	100	90	–	100	–
CC(C)NC(=O)c1c([O-])[n+]2ccccc2n1Cc1cnc(Cl)s1 [Example I-025, 1-[(2-Chlorothiazol-5-yl)methyl]-2-(isopropylcarbamoyl)imidazo[1,2-a]pyridin-4-ium-3-olate]	–	–	100	–	100	–	chromatographic logP [3]: 1.66
Cc1ccc[n+]2c([O-])c(C(=O)C(=O)OC3CCC3)n(Cc3cnc(Cl)s3)c12 [Example I-065]	–	–	100	90	–	100	–
O=C(c1cccs1)c1c([O-])[n+]2ccccc2n1Cc1cnc(Cl)s1 [Example I-026]	100	100	–	–	–	–	efficacy (Diabrotica balteata): 100%
CC(=O)c1c([O-])[n+]2cccc(C)c2n1Cc1cnc(Cl)s1 [Example I-044]	–	–	100	100	–	83	pest or weed control at 160 µg/disc, 160 µg/well (Diabrotica balteata): 100%
COCC(=O)c1c([O-])[n+]2ccccc2n1Cc1cnc(Cl)s1 [Example I-010, 1-[(2-Chlorothiazol-5-yl)methyl]-2-(2-methoxyacetyl)imidazo[1,2-a]pyridin-4-ium-3-olate]	–	–	100	100	–	–	chromatographic logP [3]: 1.13; pest or weed control at 20 ppm (Myzus persicae [1]; Myzus persicae, po, 120 h, application rate 20 ppm, read-out: efficacy): 100%; pest or weed control at 160 µg/disc, 160 µg/well (Diabrotica balteata): 100%
COC(=O)C(=O)c1c([O-])[n+]2cccc(C)c2n1Cc1cnc(Cl)s1 [Example I-045]	90	–	100	100	–	100	pest or weed control at 160 µg/disc, 160 µg/well (Diabrotica balteata): 100%
CCNC(=O)c1c([O-])[n+]2ccccc2n1Cc1cnc(Cl)s1 [Example I-018]	100	100	–	–	85	–	efficacy (Myzus persicae [1]; application rate 20 ppm): 100%; efficacy (Myzus persicae [2]): 100%; efficacy (Diabrotica balteata): 100%
O=C(OC1CCC1)C(=O)c1c([O-])[n+]2ccccc2n1Cc1cnc(Cl)s1 [Example I-035]	–	100	–	–	100	–	efficacy (Myzus persicae [2]): 100%
